Earlier results, collected in patent publication US20210008209A1, “COMBINATION THERAPY FOR TTR AMYLOIDOSIS” (Corino Therapeutics, Inc., priority 2018, published 2021).

Legend:
TTR native tetramer [1] = biological target: T1, TTR native tetramer (Homo sapiens, UniProt P02766); conditions: humans
T1 construct: host or cells: humans (in vivo)

TTR native tetramer [2] = conditions: mice
TTR = biological target: T2, TTR (Homo sapiens, UniProt P02766)
T2 construct: host or cells: human plasma

Cc1ccc(C(=O)c2cc(O)c(O)c([N+](=O)[O-])c2)cc1 [Tolcapone, tolcapone]
stabilization of the native tetramer in vivo (TTR native tetramer [1]): stabilizes the native tetramer | stabilization of the native tetramer in vivo (TTR native tetramer [2]): stabilizes the native tetramer | binding to TTR in human plasma (TTR): binds specifically to TTR | TTR cytotoxicity (TTR cytotoxicity): inhibits TTR cytotoxicity
